Earlier results on one molecule are cited in PMC1657008, “Rotavirus NSP4_114-135 peptide has no direct, specific effect on chloride transport in rabbit brush-border membrane” (Virology Journal, 2006).

This data set relates to neonatal mouse intestinal mucosal sheets. Conditions: added to neonatal mouse intestinal mucosal sheets; ref [1]. An excerpt: However, the cellular and molecular bases by which rotavirus and NSP4 induce a moderate net chloride secretion remain unclear.

For `C[N+](C)(C)CCOC(N)=O` [carbachol], the Cl- secretory currents entry was “transient, small and almost identical increases in Cl^- secretory currents”.
